Reference: patent publication US5219854A, “Blood platelet-decreasing method” (Nissan Chemical Industries Ltd., priority 1991, dated 1993)

Experiments:
blood platelet count = assay: Change of blood platelet count at the time of repeated administration of Compound A; format: in vivo, human (healthy adult males)
Description: (§1) To each of six healthy adult males (23 to 32 years age, average: 28 years age), two tablets each containing 20 mg of 4-bromo-5-(3-ethoxy-4-methoxybenzylamino)-3(2H)-pyridazinone (Compound A) were orally administered (40 mg) three times a day (120 mg) in the morning, noon and evening for 7 days (on the 7th day, administered only in the morning). Examinations were conducted with respect to the following four items from the time before the administration to the time until the 29th day after the termination of administration.
(1) Hematological Examination
(§2) Erythrocyte count, leukocyte count, hemoglobin quantity, hematocrit value, blood platelet count, reticulocyte count, leukocyte fraction and prothrombin time

[1] = Subjective symptoms, diagnosis by doctor, scientific and clinical examination during repeated oral administration; format: in vivo, human (healthy adult males); conditions: oral 40 mg three times a day for 7 days; until 29th day after the termination
Description: as §1
Everyday during the period of examination, each testee records the subjective symptoms.
A doctor makes diagnoses by asking, or ansculating and percussioning, and records their observations.
Blood pressure, pulse rate, body temperature, breathing rate, ECG (12 derivatives), pulmonary function (FVC, FEV1.0%), and visual or acoustic observation
as §2
Total protein, albumin, A/G ratio (protein fraction), BUN, creatinine, uric acid, total cholesterol, neutral fats, Na, K, Cl, Al-P, LAP, GOT, GPT, LDH, γ-GTP, ZTT, TTT, CPK, total bilirubin, direct bilirubin and blood sugar
Specific gravity, pH, bilirubin, urobilinogen, ketone body, sugar, protein and sedimentation

[2] = Acute toxicity test after single oral administration, mouse; conditions: in vivo, mouse (ICR strain, 6 weeks old), read-out: 50% lethal dose (LD50)
Description: (§3) These compounds have low toxicities and thus may be sufficiently used for medical products. For example, the 50% lethal dose (LD50) in the acute toxicity tests after single oral administration of 4 brome-5-(3-ethoxy-4-methoxybenzylamino)-3(2H)-pyridazinone as a typical compound thereof, was 2,000 mg/kg with respect to each of mouse (ICR strain, 6 weeks old), rat (SD strain, 6 weeks old) and dog (beagle, 6 months old).

[3] = Acute toxicity test after single oral administration, rat; conditions: in vivo, rat (SD strain, 6 weeks old), read-out: 50% lethal dose (LD50)
Description: as §3

[4] = Acute toxicity test after single oral administration, dog; conditions: in vivo, dog (beagle, 6 months old), read-out: 50% lethal dose (LD50)
Description: as §3

CCOc1cc(CNc2cn[nH]c(=O)c2Br)ccc1OC [Compound A, 4-bromo-5-(3-ethoxy-4-methoxybenzylamino)-3(2H)-pyridazinone]
Blood platelet count, average value ± a standard deviation (blood platelet count; 1st day after the termination of administration, oral 40 mg three times a day for 7 days, ***p < 0.001 vs before administration (paired t-test)): 14.1 ± 2.0 ×10^4 /μl
Blood platelet count, average value ± a standard deviation (blood platelet count; 6th day after the termination of administration, oral 40 mg three times a day for 7 days, **p < 0.01 vs before administration (paired t-test)): 20.4 ± 2.2 ×10^4 /μl
Blood platelet count, average value ± a standard deviation (blood platelet count; 29th day after the termination of administration, oral 40 mg three times a day for 7 days): 29.2 ± 3.9 ×10^4 /μl
Blood platelet count, average value ± a standard deviation (blood platelet count; 3 days after the initiation of administration, oral 40 mg three times a day (120 mg/day), **p < 0.01 vs before administration (paired t-test)): 25.0 ± 2.7 ×10^4 /μl
Blood platelet count, average value ± a standard deviation (blood platelet count; before the initiation of administration (baseline), six healthy adult males): 27.6 ± 2.6 ×10^4 /μl
Symptoms or changes in all items of examinations other than the blood platelet count [1]: no problematic symptom or change has been observed
LD50 [2]: 2000 mg/kg
LD50 [3]: 2000 mg/kg
LD50 [4]: 2000 mg/kg
